# Results from ChEMBL document CHEMBL5291721, “A preclinical secondary pharmacology resource illuminates target-adverse drug reaction associations of marketed drugs” (Nat Commun, 2023).
# How the values were obtained:
# [1] = molecular target: T1, Muscarinic acetylcholine receptor M2 (Homo sapiens, UniProt P08172); type: functional, cell-based
# T1 sequence (P08172 whole entry): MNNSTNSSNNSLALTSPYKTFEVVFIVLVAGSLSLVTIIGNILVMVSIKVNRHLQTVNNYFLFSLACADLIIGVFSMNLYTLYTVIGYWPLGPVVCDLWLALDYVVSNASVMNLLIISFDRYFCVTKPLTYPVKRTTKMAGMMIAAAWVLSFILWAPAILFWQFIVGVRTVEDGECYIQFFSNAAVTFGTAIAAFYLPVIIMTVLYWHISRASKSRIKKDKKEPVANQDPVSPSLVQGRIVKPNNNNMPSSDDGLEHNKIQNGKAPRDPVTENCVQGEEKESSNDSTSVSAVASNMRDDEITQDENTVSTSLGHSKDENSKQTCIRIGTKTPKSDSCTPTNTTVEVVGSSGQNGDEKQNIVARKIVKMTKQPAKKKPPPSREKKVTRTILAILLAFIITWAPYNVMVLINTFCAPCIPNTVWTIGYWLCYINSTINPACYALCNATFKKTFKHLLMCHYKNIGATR
# [2] = molecular target: T2, Cholecystokinin receptor type A (Homo sapiens, UniProt P32238)
# T2 sequence (P32238 whole entry): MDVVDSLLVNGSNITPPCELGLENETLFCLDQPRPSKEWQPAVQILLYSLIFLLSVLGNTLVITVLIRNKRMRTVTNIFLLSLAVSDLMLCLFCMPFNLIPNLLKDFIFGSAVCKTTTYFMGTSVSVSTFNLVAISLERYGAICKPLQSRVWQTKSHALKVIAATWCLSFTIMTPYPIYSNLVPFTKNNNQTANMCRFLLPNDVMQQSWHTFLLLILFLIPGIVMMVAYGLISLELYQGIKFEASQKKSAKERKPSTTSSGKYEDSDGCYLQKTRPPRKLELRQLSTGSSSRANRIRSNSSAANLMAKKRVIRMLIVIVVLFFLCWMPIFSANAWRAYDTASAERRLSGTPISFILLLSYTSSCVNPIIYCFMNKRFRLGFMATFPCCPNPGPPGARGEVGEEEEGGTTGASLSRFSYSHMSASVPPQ
# [3] = molecular target: T3, Neuropeptide Y receptor type 1 (Homo sapiens, UniProt P25929)
# T3 sequence (P25929 whole entry): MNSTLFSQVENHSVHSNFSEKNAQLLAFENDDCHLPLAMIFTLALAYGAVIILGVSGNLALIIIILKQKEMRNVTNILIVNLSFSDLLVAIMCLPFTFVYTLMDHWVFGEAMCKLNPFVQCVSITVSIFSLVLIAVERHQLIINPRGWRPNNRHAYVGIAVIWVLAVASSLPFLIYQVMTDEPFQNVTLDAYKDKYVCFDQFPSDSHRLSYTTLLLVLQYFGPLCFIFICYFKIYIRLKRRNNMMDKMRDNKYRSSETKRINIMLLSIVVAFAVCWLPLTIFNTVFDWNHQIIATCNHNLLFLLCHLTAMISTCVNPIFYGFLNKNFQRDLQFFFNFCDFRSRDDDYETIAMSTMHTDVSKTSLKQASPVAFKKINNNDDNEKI
# Adenosine receptor A2a = Adenosine receptor A2a (Homo sapiens, UniProt P29274)
# Sequence of Adenosine receptor A2a (P29274 whole entry): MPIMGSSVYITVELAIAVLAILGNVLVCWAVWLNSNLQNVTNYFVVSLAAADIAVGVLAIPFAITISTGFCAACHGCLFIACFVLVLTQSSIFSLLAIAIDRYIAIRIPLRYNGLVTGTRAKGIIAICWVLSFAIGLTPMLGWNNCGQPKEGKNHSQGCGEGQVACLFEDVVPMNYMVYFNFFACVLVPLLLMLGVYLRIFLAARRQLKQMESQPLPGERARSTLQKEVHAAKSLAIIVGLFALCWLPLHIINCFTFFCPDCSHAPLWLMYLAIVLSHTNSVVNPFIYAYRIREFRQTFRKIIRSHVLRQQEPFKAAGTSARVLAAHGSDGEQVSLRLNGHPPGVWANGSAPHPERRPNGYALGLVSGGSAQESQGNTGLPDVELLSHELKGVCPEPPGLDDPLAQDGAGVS
# D(1A) dopamine receptor = D(1A) dopamine receptor (Homo sapiens, UniProt P21728); type: functional, cell-based
# Sequence of D(1A) dopamine receptor (P21728 whole entry): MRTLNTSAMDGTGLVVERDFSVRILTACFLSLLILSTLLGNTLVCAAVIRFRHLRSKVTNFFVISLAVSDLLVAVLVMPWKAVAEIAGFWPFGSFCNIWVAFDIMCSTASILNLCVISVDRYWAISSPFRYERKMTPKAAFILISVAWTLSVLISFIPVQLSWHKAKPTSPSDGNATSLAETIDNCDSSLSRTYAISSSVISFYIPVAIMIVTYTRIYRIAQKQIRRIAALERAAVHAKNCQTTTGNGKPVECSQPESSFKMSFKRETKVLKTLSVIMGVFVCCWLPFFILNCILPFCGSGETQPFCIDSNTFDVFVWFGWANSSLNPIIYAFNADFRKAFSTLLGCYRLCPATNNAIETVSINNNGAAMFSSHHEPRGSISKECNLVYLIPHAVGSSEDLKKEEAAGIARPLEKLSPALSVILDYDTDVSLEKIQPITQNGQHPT
# [4] = molecular target: T4, Alpha-2A adrenergic receptor (Homo sapiens, UniProt P08913); type: functional, cell-based
# T4 sequence (P08913 whole entry): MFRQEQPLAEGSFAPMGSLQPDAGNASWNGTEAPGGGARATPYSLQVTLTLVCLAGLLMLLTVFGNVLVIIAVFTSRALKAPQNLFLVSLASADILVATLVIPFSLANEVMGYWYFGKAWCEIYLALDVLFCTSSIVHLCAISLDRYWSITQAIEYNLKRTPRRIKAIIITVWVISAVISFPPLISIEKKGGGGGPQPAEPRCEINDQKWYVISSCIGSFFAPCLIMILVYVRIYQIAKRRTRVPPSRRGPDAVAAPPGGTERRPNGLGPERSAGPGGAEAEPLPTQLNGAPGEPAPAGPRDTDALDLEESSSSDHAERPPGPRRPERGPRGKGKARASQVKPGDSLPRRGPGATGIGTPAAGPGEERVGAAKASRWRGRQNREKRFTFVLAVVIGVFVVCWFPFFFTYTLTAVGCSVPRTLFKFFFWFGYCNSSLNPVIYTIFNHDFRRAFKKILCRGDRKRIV
# [5] = molecular target: Growth hormone secretagogue receptor type 1 (Homo sapiens, UniProt Q92847)
# Sequence of Growth hormone secretagogue receptor type 1 (Q92847 whole entry): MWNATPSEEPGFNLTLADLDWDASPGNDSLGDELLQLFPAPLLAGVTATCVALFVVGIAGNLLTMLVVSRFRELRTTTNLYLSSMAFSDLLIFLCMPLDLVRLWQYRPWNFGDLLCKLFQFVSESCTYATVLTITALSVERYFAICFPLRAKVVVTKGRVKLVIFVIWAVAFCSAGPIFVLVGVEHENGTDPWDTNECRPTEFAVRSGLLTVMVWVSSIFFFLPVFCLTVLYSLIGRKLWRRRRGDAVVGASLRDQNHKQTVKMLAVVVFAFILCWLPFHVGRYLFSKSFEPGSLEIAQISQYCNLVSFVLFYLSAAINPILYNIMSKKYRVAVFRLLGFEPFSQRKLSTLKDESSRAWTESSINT
# [6] = molecular target: T1, Muscarinic acetylcholine receptor M2; type: functional, cell-based; remark: listed apart in the source
# Thromboxane A2 receptor = molecular target: T5, Thromboxane A2 receptor (Homo sapiens, UniProt P21731)
# T5 sequence (P21731 whole entry): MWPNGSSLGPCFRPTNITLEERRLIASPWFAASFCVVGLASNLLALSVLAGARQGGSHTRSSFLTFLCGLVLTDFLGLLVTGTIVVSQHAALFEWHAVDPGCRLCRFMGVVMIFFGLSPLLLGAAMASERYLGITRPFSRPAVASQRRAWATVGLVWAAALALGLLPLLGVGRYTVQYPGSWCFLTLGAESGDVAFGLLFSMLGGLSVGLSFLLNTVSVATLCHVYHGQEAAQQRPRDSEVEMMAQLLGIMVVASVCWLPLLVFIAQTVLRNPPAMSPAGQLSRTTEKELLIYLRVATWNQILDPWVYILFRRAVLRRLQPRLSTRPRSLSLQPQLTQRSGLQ
# Also: assay procedure not described here.
Compound,AC50 [1] [µM],AC50 [2] [µM],AC50 [3] [µM],AC50 (Adenosine receptor A2a) [µM],AC50 (D(1A) dopamine receptor) [µM],AC50 [4] [µM],AC50 [5] [µM],AC50 [6] [µM],AC50 (Thromboxane A2 receptor) [µM]
Cc1cc2c(OCC(CNC(C)(C)C)OC(=O)c3ccccc3)cccc2[nH]1 (centres undefined) [BOPINDOLOL],> 30,> 30,> 30,> 30,> 30,> 30,16,> 30,> 30
COc1c(C)c2c(c(O)c1C/C=C(\C)CCC(=O)OCCN1CCOCC1)C(=O)OC2 [MYCOPHENOLATE MOFETIL],> 30,> 30,> 30,> 30,> 30,> 30,> 30,> 30,> 30
CCNC(C)Cc1cccc(C(F)(F)F)c1 (centres undefined) [FENFLURAMINE],> 30,> 30,> 30,> 30,,,> 30,> 30,> 30
Cc1c(O)c(=O)ccn1C [DEFERIPRONE],> 30,> 30,> 30,> 30,> 30,> 30,> 30,> 30,> 30
COc1ccc2c(c1)c(CC(=O)OCC(=O)O)c(C)n2C(=O)c1ccc(Cl)cc1 [ACEMETACIN],> 30,> 30,> 30,> 30,> 30,> 30,> 30,> 30,> 30
COc1ccccc1OCC(O)COC(N)=O (centres undefined) [METHOCARBAMOL],> 10,> 10,> 10,> 10,> 10,> 10,> 10,> 10,> 10
CC[C@]1(O)C[C@@H]2CN(CCc3c([nH]c4ccccc34)[C@@](C(=O)OC)(c3cc4c(cc3OC)N(C)[C@H]3[C@@](O)(C(N)=O)[C@H](O)[C@]5(CC)C=CCN6CC[C@]43[C@@H]65)C2)C1 [VINDESINE],> 30,> 30,> 30,> 30,> 30,> 30,6.5,> 30,> 30
Nc1nc2ccc(OC(F)(F)F)cc2s1 [RILUZOLE],> 30,> 30,> 30,> 30,> 30,> 30,> 30,> 30,
CC(C)(Oc1ccc(C2CC2(Cl)Cl)cc1)C(=O)O (centres undefined) [CIPROFIBRATE],> 30,> 30,> 30,> 30,> 30,> 30,> 30,> 30,> 30
C#CCN(C)[C@H](C)Cc1ccccc1 [SELEGILINE],> 10,> 10,> 10,> 10,> 10,> 10,> 10,> 10,> 10
CC(=O)O[C@@]12CO[C@@H]1C[C@H](O)[C@@]1(C)C(=O)[C@H](O)C3=C(C)[C@@H](OC(=O)[C@H](O)[C@@H](NC(=O)OC(C)(C)C)c4ccccc4)C[C@@](O)([C@@H](OC(=O)c4ccccc4)[C@H]21)C3(C)C [DOCETAXEL ANHYDROUS],> 30,> 30,> 30,> 30,> 30,> 30,> 30,> 30,> 30
CCCOc1ccc(C(=O)OCCN(CC)CC)cc1N [PROPARACAINE],> 30,> 30,> 30,> 30,> 30,> 30,> 30,> 30,
CC(C)c1c(C(=O)Nc2ccccc2)c(-c2ccccc2)c(-c2ccc(F)cc2)n1CC[C@@H](O)C[C@@H](O)CC(=O)O [ATORVASTATIN],,> 30,> 30,> 30,,> 10,> 30,,> 30
CCN1CCC[C@H]1CNC(=O)c1cc(S(N)(=O)=O)ccc1OC [LEVOSULPIRIDE],> 10,> 30,,> 30,> 30,> 10,> 30,> 10,> 30
CN[C@@H]1[C@H](O)[C@H](NC)[C@H]2O[C@@]3(O)C(=O)C[C@@H](C)O[C@H]3O[C@@H]2[C@H]1O [SPECTINOMYCIN],> 10,> 10,> 10,> 10,> 10,> 10,> 10,> 10,> 10
COc1c(N2CCNC(C)C2)c(F)cc2c(=O)c(C(=O)O)cn(C3CC3)c12 (centres undefined) [GATIFLOXACIN],> 10,> 10,> 10,> 10,> 30,> 10,> 10,> 10,> 10
CCN(CC)CCOC(=O)c1ccc(N)cc1 [PROCAINE],> 10,> 30,> 30,> 30,> 10,> 10,> 30,> 10,
Cc1cccc(C)c1NC(=O)C1CCCCN1C (centres undefined) [MEPIVACAINE],> 30,> 30,> 30,> 30,> 30,> 30,> 30,> 30,
C[C@]12CCC(=O)C=C1CC[C@@H]1[C@@H]2CC[C@@]2(C)[C@H]1CC[C@]2(C)O [METHYLTESTOSTERONE],> 30,> 30,> 30,> 30,> 30,> 30,> 30,> 30,> 30
NC(=O)C[S+]([O-])C(c1ccccc1)c1ccccc1 (centres undefined) [MODAFINIL],> 10,> 30,> 30,> 30,> 10,> 10,> 30,> 10,> 30
CCCCN1CCCCC1C(=O)Nc1c(C)cccc1C (centres undefined) [BUPIVACAINE],> 30,> 30,> 30,> 30,> 30,> 30,> 30,> 30,> 30
